Usually IC50 stands for the concentration that gives 50% inhibition.

Assay [1] has as its target T1, Protein farnesyltransferase (Homo sapiens, UniProt P49354+P49356). Nature of the assay: Inhibitory activity against protein farnesyltransferase. It counts as protein-complex assay.
Assay [2] has as its target T1, Protein farnesyltransferase. Nature of the assay: Inhibitory activity against Protein farnesyltransferase (Inactive). Format: protein-complex assay.

`CC(C)C[C@H](C(=O)N1CCC(=C2c3ccc(Cl)cc3CCc3cccnc32)CC1)N1C(=O)c2ccccc2C1=O` came in with an IC50 in assay [1] greater than 10 µM.
In turn, `O=C(CN1C(=O)c2ccccc2S1(=O)=O)N1CCC(=C2c3ccc(Cl)cc3CCc3cccnc32)CC1` gave an IC50 in assay [1] of 2 µM.
In assay [1], `COc1ccc(CSC[C@@H](N)C(=O)N2CCC(=C3c4ccc(Cl)cc4CCc4cccnc43)CC2)cc1` had an IC50 of 6.29 µM.
Still for that read-out and setting: the same measure for `O=C(N[C@H](Cc1ccc(O)cc1)C(=O)N1CCC(=C2c3ccc(Cl)cc3CCc3cccnc32)CC1)OCc1ccccc1`: 1.2 µM.
For `O=S(=O)(Cc1ccccc1)N1CCC(=C2c3ccc(Cl)cc3CCc3cccnc32)CC1`, 1 µM corresponded to half-maximal inhibition in assay [1] (IC50).
`C[C@H](C(=O)N1CCC(=C2c3ccc(Cl)cc3CCc3cccnc32)CC1)N1C(=O)c2ccccc2C1=O` returned an IC50 in assay [1] of 4.6 µM.
As for `O=S(=O)(c1ccc2ccccc2c1)N1CCC(=C2c3ccc(Cl)cc3CCc3cccnc32)CC1`, the IC50 in assay [1] is greater than 12 µM.
As to `CC1(C)C2CCC1(CS(=O)(=O)N1CCC(=C3c4ccc(Cl)cc4CCc4cccnc43)CC1)C(=O)C2` (centres undefined), the IC50 in assay [1] was 11.4 µM.
The same measure, in the same setting: the same measure for `CC(C)(C)OC(=O)NCC(=O)N1CCC(=C2c3ccc(Cl)cc3CCc3cccnc32)CC1`: 6.8 µM.
As for `COC(=O)c1ccccc1S(=O)(=O)N1CCC(=C2c3ccc(Cl)cc3CCc3cccnc32)CC1`, in assay [1], the IC50 stood at 10.6 µM.
Still for that read-out and setting: the same measure for `NCC(=O)N1CCC(=C2c3ccc(Cl)cc3CCc3cccnc32)CC1`: 22.3 µM.
`O=C(CNC(c1ccccc1)(c1ccccc1)c1ccccc1)N1CCC(=C2c3ccc(Cl)cc3CCc3cccnc32)CC1` registered an IC50 in assay [1] greater than 10 µM.
Still for that read-out and setting: the same measure for `O=C(Cc1ccccc1)NCC(=O)N1CCC(=C2c3ccc(Cl)cc3CCc3cccnc32)CC1`: 8.4 µM.
Same read-out and setting: the same measure for `CCS(=O)(=O)N1CCC(=C2c3ccc(Cl)cc3CCc3cccnc32)CC1`: 5.2 µM; for `COc1ccc(CSC[C@@H](NC(=O)OC(C)(C)C)C(=O)N2CCC(=C3c4ccc(Cl)cc4CCc4cccnc43)CC2)cc1`: 3.05 µM.
Still for that read-out and setting: the same measure for `CS(=O)(=O)N1CCC(=C2c3ccc(Cl)cc3CCc3cccnc32)CC1`: 1.9 µM; for `CCCCS(=O)(=O)N1CCC(=C2c3ccc(Cl)cc3CCc3cccnc32)CC1`: 4.8 µM; for `C=CS(=O)(=O)N1CCC(=C2c3ccc(Cl)cc3CCc3cccnc32)CC1`: 1 µM.
The compound `O=C(CC[C@H](C(=O)N1CCC(=C2c3ccc(Cl)cc3CCc3cccnc32)CC1)N1C(=O)c2ccccc2C1=O)Nc1ccccc1` had an IC50 in assay [1] of 4.8 µM.
`CCCCCCCCCCS(=O)(=O)N1CCC(=C2c3ccc(Cl)cc3CCc3cccnc32)CC1`: the IC50 entry in assay [2] is on record as “Not Active”.
`O=C(NCC(=O)N1CCC(=C2c3ccc(Cl)cc3CCc3cccnc32)CC1)c1ccccc1` yielded an IC50 in assay [1] of 8.8 µM.
`CN(C)S(=O)(=O)N1CCC(=C2c3ccc(Cl)cc3CCc3cccnc32)CC1` gave a 50% inhibitory concentration (IC50) in assay [1] of 1.9 µM.
In turn, `CSCC[C@H](C(=O)N1CCC(=C2c3ccc(Cl)cc3CCc3cccnc32)CC1)N1C(=O)c2ccccc2C1=O` showed an IC50 in assay [1] of 4.7 µM.
The same measure, in the same setting: the same measure for `O=C([C@@H](Cc1ccccc1)N1C(=O)c2ccccc2C1=O)N1CCC(=C2c3ccc(Cl)cc3CCc3cccnc32)CC1`: greater than 10 µM.
On the same count and under the same terms, the same measure for `O=C(CN1C(=O)c2ccccc2C1=O)N1CCC(=C2c3ccc(Cl)cc3CCc3cccnc32)CC1`: 0.66 µM; for `O=C(CNCc1ccccc1)N1CCC(=C2c3ccc(Cl)cc3CCc3cccnc32)CC1`: 9.6 µM; for `O=C(NCC(=O)N1CCC(=C2c3ccc(Cl)cc3CCc3cccnc32)CC1)OCc1ccccc1`: 8.5 µM.
Same read-out and setting: the same measure for `CC1(C)C2CCC1(CS(=O)(=O)N1CCC(=C3c4ccc(Cl)cc4CCc4cccnc43)CC1)C(O)C2` (centres undefined): 8.2 µM.
With `O=C(O)c1ccccc1S(=O)(=O)N1CCC(=C2c3ccc(Cl)cc3CCc3cccnc32)CC1`, the IC50 in assay [1] is greater than 11 µM.
As for `CCCCCCCCS(=O)(=O)N1CCC(=C2c3ccc(Cl)cc3CCc3cccnc32)CC1`, in assay [1], the IC50 is greater than 12 µM.
Compound `O=[N+]([O-])c1ccc(S(=O)(=O)N2CCC(=C3c4ccc(Cl)cc4CCc4cccnc43)CC2)cc1` registered an IC50 in assay [1] greater than 12 µM.
Consider `O=S(=O)(c1cccs1)N1CCC(=C2c3ccc(Cl)cc3CCc3cccnc32)CC1`, for which the IC50 in assay [1] was found to be 13 µM.
With `CCCCCCCCCCCS(=O)(=O)N1CCC(=C2c3ccc(Cl)cc3CCc3cccnc32)CC1`, the IC50 entry in assay [2] is given as “Not Active”.
As for `O=C([C@@H](Cc1c[nH]cn1)N1C(=O)c2ccccc2C1=O)N1CCC(=C2c3ccc(Cl)cc3CCc3cccnc32)CC1`, the IC50 in assay [1] came out at 3.6 µM.

These data come from ChEMBL document CHEMBL1128949, “Novel tricyclic aminoacetyl and sulfonamide inhibitors of Ras farnesyl protein transferase” (Bioorg Med Chem Lett, 1996).
